Tests used:
ROCK2 = ROCK2 (Homo sapiens (Human), UniProt O75116); assay: ROCK2 inhibition assay (HotSpot, 33P-ATP); type: biochemical
PKA = PKA (Homo sapiens (Human), UniProt P17612); assay: PKA inhibition assay (HotSpot, 33P-ATP); type: biochemical; conditions: Table 2B; 10 μM ATP; Compound 1 is geometric mean of multiple experiments
Method: (§1) Compounds as a powder were dissolved in dimethyl sulfoxide to make a 10 mM stock. […] The HotSpot kit employing ^33P-ATP was used with reactions conducted at 10 μM ATP for each tested enzyme. The percent activity relative to DMSO controls for each concentration was then fitted to a curve using GraphPad Prism to determine the IC50. […] Each experiment was run in the same lab with this procedure.

ROCK1 = ROCK1 (Homo sapiens (Human), UniProt Q13464); assay: ROCK1 inhibition assay (HotSpot, 33P-ATP); type: biochemical; conditions: Table 2A; 10 μM ATP
Sequence of ROCK1 (Q13464 whole entry): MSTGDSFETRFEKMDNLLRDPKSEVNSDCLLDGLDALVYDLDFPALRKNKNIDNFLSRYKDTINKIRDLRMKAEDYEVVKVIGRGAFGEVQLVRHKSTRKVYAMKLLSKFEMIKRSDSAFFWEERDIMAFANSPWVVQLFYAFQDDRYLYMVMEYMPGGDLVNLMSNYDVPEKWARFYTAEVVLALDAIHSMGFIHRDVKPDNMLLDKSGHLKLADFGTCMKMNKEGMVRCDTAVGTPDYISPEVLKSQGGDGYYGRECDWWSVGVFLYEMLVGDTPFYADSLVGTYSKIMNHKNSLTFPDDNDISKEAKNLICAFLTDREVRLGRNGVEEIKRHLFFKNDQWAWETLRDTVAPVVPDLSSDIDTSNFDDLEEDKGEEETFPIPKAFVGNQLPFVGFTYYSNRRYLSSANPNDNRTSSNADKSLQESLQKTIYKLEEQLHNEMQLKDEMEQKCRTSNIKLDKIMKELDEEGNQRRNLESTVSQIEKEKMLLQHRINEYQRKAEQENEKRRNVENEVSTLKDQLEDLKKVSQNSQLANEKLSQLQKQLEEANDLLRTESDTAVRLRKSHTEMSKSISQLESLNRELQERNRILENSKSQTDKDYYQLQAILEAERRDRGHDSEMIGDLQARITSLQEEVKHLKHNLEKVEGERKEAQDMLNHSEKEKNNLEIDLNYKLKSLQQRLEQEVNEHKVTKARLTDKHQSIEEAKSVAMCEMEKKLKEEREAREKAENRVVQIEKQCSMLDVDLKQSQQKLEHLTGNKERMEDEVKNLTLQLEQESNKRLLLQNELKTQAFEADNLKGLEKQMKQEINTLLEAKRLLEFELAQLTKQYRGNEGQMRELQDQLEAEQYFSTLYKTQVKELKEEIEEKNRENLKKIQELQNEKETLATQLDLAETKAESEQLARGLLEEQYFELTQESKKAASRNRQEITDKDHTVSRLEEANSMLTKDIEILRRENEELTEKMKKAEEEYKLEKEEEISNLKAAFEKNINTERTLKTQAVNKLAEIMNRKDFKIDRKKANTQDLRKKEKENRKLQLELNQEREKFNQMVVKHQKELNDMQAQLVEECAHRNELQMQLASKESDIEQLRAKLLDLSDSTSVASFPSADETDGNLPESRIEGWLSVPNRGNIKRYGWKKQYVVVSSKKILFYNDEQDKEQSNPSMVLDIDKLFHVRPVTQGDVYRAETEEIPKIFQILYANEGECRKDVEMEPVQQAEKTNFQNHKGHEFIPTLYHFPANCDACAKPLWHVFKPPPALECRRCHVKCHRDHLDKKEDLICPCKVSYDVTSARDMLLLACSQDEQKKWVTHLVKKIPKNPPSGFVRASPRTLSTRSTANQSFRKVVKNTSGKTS

PRKX = PRKX (Homo sapiens (Human), UniProt P51817); assay: PRKX inhibition assay (HotSpot, 33P-ATP); type: biochemical; conditions: Table 2B; 10 μM ATP; Compound 1 is geometric mean of multiple experiments
Sequence of PRKX (P51817 whole entry): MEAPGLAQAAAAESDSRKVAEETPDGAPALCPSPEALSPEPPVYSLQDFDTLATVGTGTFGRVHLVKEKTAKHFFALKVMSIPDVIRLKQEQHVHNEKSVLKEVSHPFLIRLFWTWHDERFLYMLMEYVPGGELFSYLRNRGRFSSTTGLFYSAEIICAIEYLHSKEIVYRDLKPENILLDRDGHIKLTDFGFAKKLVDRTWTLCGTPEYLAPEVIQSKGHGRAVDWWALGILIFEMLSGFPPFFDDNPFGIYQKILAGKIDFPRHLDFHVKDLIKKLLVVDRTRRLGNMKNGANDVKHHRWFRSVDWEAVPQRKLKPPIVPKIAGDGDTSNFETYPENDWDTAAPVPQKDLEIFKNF
Method: as §1

hERG = hERG (Homo sapiens (Human), UniProt Q12809); assay: biochemical
Sequence of hERG (Q12809 whole entry): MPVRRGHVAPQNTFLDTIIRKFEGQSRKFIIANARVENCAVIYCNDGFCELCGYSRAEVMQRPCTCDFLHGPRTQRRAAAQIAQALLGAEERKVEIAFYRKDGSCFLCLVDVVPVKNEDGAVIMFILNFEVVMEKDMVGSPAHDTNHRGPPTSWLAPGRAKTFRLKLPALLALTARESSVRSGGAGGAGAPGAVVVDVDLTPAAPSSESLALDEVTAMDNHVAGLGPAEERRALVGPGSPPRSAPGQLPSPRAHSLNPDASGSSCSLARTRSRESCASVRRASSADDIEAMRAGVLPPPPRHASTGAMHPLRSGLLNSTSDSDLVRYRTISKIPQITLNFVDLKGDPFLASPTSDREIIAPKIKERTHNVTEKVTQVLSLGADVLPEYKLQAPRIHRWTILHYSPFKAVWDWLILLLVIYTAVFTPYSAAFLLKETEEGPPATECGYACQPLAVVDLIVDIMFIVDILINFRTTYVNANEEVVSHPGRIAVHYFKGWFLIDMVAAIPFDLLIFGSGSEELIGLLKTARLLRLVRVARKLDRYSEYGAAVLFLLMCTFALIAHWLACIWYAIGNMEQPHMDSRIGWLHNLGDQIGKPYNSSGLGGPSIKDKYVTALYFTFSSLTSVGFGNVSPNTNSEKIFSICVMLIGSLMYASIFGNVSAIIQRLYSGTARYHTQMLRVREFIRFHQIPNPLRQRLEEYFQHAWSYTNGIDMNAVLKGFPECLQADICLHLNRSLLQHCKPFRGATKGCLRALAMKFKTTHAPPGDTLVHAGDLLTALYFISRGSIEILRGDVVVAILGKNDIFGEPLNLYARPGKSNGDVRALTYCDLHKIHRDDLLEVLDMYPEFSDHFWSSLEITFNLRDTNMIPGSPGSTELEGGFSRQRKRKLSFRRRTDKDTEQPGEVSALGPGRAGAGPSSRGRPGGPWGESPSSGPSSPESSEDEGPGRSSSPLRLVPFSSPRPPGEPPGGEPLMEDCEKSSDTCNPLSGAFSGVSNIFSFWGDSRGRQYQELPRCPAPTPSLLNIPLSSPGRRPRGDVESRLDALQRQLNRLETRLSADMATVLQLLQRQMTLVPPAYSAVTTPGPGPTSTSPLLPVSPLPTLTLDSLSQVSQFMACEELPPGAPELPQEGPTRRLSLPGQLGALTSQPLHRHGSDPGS

[1] = 24 hour rat pharmacokinetics; conditions: male
[2] = 24 hour mouse pharmacokinetics; type: in vivo, B6SJLF1/J mice
Method: Groups 2, 3, 4, 6, and 8: Test article was dissolved in a minimal amount of DMSO (Groups 2, 4, 6, 8: 40-50 μL, Group 3: 100 μL), 0.5% methylcellulose was added to final volume, then solution was sonicated for 2 minutes.
Group 7: Test article was dissolved in 100 μL DMSO, saline was added to final volume, then solution was sonicated for 2 minutes.
Groups 1, 5: The test article was administered as a single dose via slow bolus intravenous administration into a lateral tail vein, with a 27G needle.
Groups 2, 4, 6, 7, 8: The test article was administered as a single dose directly to the stomach by oral gavage.
Group 3: The test article was administered as a single dose in two parts with an approximate 1-2-minute rest between due to volume administered.
Approximately 150 μL of blood was collected by tail nick for the first time point and then the maximal volume by cardiac stick for the second, terminal time point in each mouse. The plasma was spun and separated within 30 minutes of collection and stored frozen at −20° C. until shipment.
Prior to the terminal blood collection, CSF was collected. […] The resulting data is shown in Tables 13, 14, 15, 16 and 17 below.

Sequence of ROCK2 (O75116 whole entry): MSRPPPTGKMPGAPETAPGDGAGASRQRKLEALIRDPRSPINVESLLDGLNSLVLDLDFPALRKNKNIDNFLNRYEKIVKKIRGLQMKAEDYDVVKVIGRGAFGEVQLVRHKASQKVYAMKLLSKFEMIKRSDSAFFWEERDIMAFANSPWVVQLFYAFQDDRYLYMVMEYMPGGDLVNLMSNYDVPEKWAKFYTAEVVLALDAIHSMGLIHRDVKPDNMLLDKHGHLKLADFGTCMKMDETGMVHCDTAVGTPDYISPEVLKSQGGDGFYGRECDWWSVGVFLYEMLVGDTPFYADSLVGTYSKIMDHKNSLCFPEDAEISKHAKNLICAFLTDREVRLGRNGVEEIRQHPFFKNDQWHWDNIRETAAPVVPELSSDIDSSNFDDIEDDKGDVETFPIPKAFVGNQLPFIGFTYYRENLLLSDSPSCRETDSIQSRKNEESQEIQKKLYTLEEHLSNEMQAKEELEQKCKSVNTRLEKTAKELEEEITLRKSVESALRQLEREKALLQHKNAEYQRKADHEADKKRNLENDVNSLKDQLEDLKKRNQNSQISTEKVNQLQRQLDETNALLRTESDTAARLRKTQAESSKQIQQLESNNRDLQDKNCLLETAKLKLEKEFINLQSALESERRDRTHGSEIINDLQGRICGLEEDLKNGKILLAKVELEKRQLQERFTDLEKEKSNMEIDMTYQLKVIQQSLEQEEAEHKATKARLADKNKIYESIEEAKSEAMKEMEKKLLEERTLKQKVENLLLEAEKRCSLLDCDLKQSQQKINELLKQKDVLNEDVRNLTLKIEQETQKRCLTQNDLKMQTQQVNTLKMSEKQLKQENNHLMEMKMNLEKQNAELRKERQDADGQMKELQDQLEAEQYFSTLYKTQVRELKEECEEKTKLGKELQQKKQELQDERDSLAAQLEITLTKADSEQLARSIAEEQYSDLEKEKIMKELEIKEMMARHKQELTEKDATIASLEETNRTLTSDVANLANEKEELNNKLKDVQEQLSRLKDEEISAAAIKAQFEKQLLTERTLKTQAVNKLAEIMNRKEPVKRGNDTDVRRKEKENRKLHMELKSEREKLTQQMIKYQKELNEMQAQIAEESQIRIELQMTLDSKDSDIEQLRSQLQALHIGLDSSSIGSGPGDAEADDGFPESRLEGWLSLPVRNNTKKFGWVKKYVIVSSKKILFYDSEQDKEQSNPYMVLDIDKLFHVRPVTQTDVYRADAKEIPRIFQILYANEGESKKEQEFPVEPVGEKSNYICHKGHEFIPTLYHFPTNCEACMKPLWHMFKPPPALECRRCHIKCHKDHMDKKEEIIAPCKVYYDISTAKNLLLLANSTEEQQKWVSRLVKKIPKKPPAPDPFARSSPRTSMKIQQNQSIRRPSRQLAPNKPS

| SMILES | IC50 (ROCK2; Table 2A, 10 μM ATP) [nM] | IC50 (PKA) [nM] | IC50 (ROCK1) [nM] | IC50 (PRKX) [nM] | concentration required to inhibit half of ROCK2's activity, lower than Fasudil (ROCK2; head-to-head against Fasudil) | Kd (hERG) [nM] | AUC0-t/D ([1]; IV 3 mg/kg) | AUC0-t/D ([1]; PO 10 mg/kg) | AUC0-t/D ([2]; IV 3 mg/kg, male) | AUC0-t/D ([2]; PO 10 mg/kg, female) | AUC0-t/D ([2]; PO 10 mg/kg, male) | AUC0-t/D ([2]; PO 100 mg/kg, male) | Ratio to 10 mg/kg Dose Level, AUC0-∞ ([2]; PO 100 mg/kg, male) |
| --- | --- | --- | --- | --- | --- | --- | --- | --- | --- | --- | --- | --- | --- |
| Cc1[nH]ncc1-c1ccc2cc(C(=O)NCc3c(Cl)cccc3C3(O)CC3)[nH]c2n1 [Compound 6, N-(2-chloro-6-(1-hydroxycyclopropyl)benzyl)-6-(5-methyl-1H-pyrazol-4-yl)-1H-pyrrolo[2,3-b]pyridine-2-carboxamide] | 10.1 | 103 | 35.6 | 32.3 |  |  |  |  |  |  |  |  |  |
| Cn1c(C(=O)NCc2ccccc2F)cc2ccc(-c3cn[nH]c3)nc21 [Compound 1, N-(2-fluorobenzyl)-1-methyl-6-(1H-pyrazol-4-yl)-1H-pyrrolo[2,3-b]pyridine-2-carboxamide] |  |  |  |  | more than 50 fold | > 100000 | 1541 (h * ng/ml)/(mg/kg) | 261 (h * ng/ml)/(mg/kg) | 3380 (h * ng/ml)/(mg/kg) | 567 (h * ng/ml)/(mg/kg) | 535 (h * ng/ml)/(mg/kg) | 441 (h * ng/ml)/(mg/kg) | 8.00 |

Source: patent US20240254124A1, “AZAINDOLE ROCK INHIBITORS” (priority 2022, published 2024)
